Experimental findings from BindingDB's records for PubMed 9618428 (Glaxo Wellcome Research and Development, 1998) are described below.

The target of assay [1] is Melatonin receptor type 1A (Sus scrofa, UniProt O02781).
Assay [2] addresses Melatonin receptor type 1A (Homo sapiens, UniProt P48039).
Assay [3] concerns the target T1, Melatonin receptor type 1B (Homo sapiens, UniProt P49286).
T1 sequence (P49286 whole entry): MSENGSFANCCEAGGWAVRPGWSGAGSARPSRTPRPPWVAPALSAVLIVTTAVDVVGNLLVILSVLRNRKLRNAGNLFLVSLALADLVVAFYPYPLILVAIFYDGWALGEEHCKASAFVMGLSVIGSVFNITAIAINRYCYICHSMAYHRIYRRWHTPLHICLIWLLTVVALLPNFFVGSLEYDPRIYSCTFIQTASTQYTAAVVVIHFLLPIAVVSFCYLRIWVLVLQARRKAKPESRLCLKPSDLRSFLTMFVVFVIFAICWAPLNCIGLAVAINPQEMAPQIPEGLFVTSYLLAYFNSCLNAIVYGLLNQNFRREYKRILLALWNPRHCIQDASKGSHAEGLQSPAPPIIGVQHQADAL

“And” between values parts separate entries of the source, which are not always exact repeats. Equal values may be shown once.

Chain of Melatonin receptor type 1A (Homo sapiens, UniProt P48039) (P48039 whole entry): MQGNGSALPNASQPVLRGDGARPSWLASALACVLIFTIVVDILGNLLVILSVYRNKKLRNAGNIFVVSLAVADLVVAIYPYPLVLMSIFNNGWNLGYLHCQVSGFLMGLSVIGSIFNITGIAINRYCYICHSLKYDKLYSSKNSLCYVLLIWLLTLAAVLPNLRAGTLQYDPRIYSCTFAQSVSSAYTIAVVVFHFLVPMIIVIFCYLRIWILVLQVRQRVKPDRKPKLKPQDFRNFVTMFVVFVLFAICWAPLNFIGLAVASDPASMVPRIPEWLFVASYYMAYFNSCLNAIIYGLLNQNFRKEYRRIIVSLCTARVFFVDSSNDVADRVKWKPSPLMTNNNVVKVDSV
Chain of Melatonin receptor type 1A (Sus scrofa, UniProt O02781) (O02781 whole entry): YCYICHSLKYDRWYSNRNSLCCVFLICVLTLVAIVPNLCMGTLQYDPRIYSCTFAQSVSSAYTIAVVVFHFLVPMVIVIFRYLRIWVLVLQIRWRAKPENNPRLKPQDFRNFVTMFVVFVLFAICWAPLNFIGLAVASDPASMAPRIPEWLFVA

By Ki is commonly meant the dissociation constant of the complex between target and ligand, obtained from inhibition or displacement. For the compound `CC(=O)NCCc1c(Cc2ccccc2)[nH]c2ccccc12` [CAS_117946-91-5], in assay [1], the inhibition constant (Ki) was 933 nM and 676 nM.

As for `COc1ccc2[nH]cc(CCNC(C)=O)c2c1`, the Ki in assay [1] is 0.25 nM and 0.24 nM.

Regarding `COc1cc2c(CCNC(C)=O)c[nH]c2cc1Cl`, the inhibition constant Ki in assay [1] is 0.46 nM and 0.74 nM.

For the compound `COc1cc2c(CCNC(C)=O)c[nH]c2cc1O` [melatonin, 6-Hydroxy], the inhibitory constant (Ki) was 0.54 nM in assay [2]; 2.23 nM and 1.69 nM in assay [3]; 10.2 nM and 25.1 nM in assay [1].

As to `CC(=O)NCCc1c[nH]c2ccc(O)cc12` [N-Acetyltryptamine,5-Hydroxy], the Ki was 79.4 nM in assay [2]; 302 nM and 148 nM in assay [3]; 398 nM and 347 nM in assay [1].

For the compound `COc1ccc2[nH]c(I)c(CCNC(C)=O)c2c1`, the Ki in assay [1] is 0.03 nM and 0.04 nM.

In the case of `CC(=O)NCCN1CCc2ccc3c(c21)CCO3` [NSC_5311134], the inhibition constant (Ki) in assay [2] is 0.14 nM; in assay [3], 0.16 nM; in assay [1] it was 0.61 nM and 0.33 nM.
